In patent US20220054384A1, “MICROBIOSTATIC SOAP THAT REDUCES THE TRANSMISSION OF MICROBES” (GPCP IP Holdings LLC, priority 2018, published 2022):

Tests used:
[1] = test system: Staphylococcus aureus ATCC 6538 and Escherichia coli ATCC 15225; assay: Bacteriostatic MIC of release agents (modified standard MIC protocol, tube growth then streak onto TSA plate); type: cell-based; settings: lower bacteriostatic limit (bacteriostatic MIC): no growth in tube, growth on TSA plate
Excerpt: Release agents for use in the described soaps and hard surface cleaners are those materials that can coat all or part of a microbe or spore wall, but not penetrate the cellular or spore wall, rendering the microbe unable to infect skin or reproduce at the time of application. Not only does the release agent coat the microbe, it also coats skin. Because the microbe coating and skin coating have similar charges, the microbe is repelled from the skin surface into the soap layer. After rinsing the soap, the material is disrupted and releases, allowing regrowth of the microbe. […] However, when the solution is swabbed onto a growth media plate, polymer disruption and release occur, allowing the microbe to resume growth. […] A series of compounds were tested to determine whether microbes exposed to these compositions and rinsed off were still viable to regrow. The standard MIC protocol (Internal NTC Microbiology Lab Method: MB-025) was followed for this work with some modifications. The organisms used were Staphylococcus aureus ATCC® 6538™ and Escherichia coli ATCC® 15225™ (94 TFM). All organisms were purchased from Microbiologics® and grown in the lab on Trypticase Soy Agar (TSA) at 35° C. The organisms were washed off of the agar into 0.1% peptone water and visually matched to a McFarland 0.5 Standard (equal to […]). Ten-fold serial dilutions were prepared for all chemicals tested in Mueller-Hinton II Broth (MH Broth). An initial 1:10 dilution in MH Broth was made and all subsequent dilutions were prepared by removing 1 mL from the previous dilution and transferring to a sterile MH Broth tube. For the initial screening, 1:10 serial dilutions were prepared through 1:1,000,000. One mL of the bacterial solution was added to each dilution tube and vortexed to mix. […] For subsequent round(s) of testing, the parts per million (ppm) of chemical was calculated and dilution tubes were prepared to bracket the ppm of growth/no-growth seen during the first round of testing. Each tube was prepared by adding in the calculated amount of MH Broth and test substance. The inoculation and incubation procedure was followed as stated above. […] For the second round of samples, each tube with no growth was streaked onto a Trypticase Soy Agar (TSA) plate to identify if the organism was still present in the tube but unable to grow in the presence of the chemical. All TSA plates were incubated for 18±4 hours at 37° C. and then observed for growth/no-growth.

[2] = test system: Staphylococcus aureus ATCC 6538 and Escherichia coli ATCC 15225; assay: as above; type: cell-based; settings: upper bacteriostatic concentration limit of release agent; no initial growth in solution but growth after swabbing onto growth media plate

Compound: CCCCCCCCOC(=O)CC(C(=O)OCCCCCCCC)S(=O)(=O)[O-].[Na+] (stereo not shown) [Dioctyl sulfosuccinate sodium salt]
- Lower Limit from 24-hour growth (%) [1]: 5.0%
- Upper Limit from 1 min Exposure [2]: 5.0

Compound: CCCCCCCCCCCC(=O)NCCC[N+](C)(C)CC(=O)[O-] [Lauramidopropyle betaine]
- Lower Limit from 24-hour growth (%) [1]: 0.1%
- Upper Limit from 1 min Exposure [2]: 4.0

Compound: Cocamidopropyl betaine
- Lower Limit from 24-hour growth (%) [1]: 1.0%
- Upper Limit from 1 min Exposure [2]: 27.0

Compound: Cocamidopropyl hydroxy sultaine
- Lower Limit from 24-hour growth (%) [1]: 0.5%
- Upper Limit from 1 min Exposure [2]: 45.0

Compound: Disodium Cocamphodiacetate
- Lower Limit from 24-hour growth (%) [1]: 2.0%
- Upper Limit from 1 min Exposure [2]: 36.0
